US9783513B2, “STAT3 inhibitors and their anticancer use” (Ohio State Innovation Foundation, priority 2012, dated 2017)
Entries after “also recorded” stand apart in the source; their conditions may differ.

Columns and labels:
[1] = test system: 96 human protein or lipid kinases; test: Kinase screening (KINOMESCAN), panel of 96 kinases; type: binding
Description: The potential off-target activity of a representative compound was assessed in a screen against 96 protein and lipid kinases (see FIGS. 56 and 60). The test compound, LY-5, was assessed at 1000 and 5000 nM concentration using in vitro kinase assays. The assays were carried out using standard techniques known to one skilled in the art (KINOMESCAN™, San Diego, Calif.). The data in FIG. 60 show the % inhibition for the tested concentrations of LY-5 in the panel of kinases assessed. The interaction map provides a visualization of the relationship of these inhibition data from FIG. 60 to various kinase families.

[2] = test system: STAT1; test: Western blot, STAT1 / Y701 phosphorylation; type: cell-based, human
Description: RH30 cells were treated with DMSO, LY-5 (0.25-1 μM) and LY-3 (0.5-2.5 μM) prepared as a 20 mM stock solution in sterile DMSO at 60% to 80% confluence in the presence of 10% FBS for 24 hours. The sarcoma cell line EW8 was treated with DMSO and LY-5 (0.5-2.5 μM) prepared as a 20 mM stock solution in sterile DMSO at 60% to 80% confluence in the presence of 10% FBS for 24 hours. MCF-7 cells and DAOY cells were treated with DMSO, 25-50 ng/ml of IL-6, LY-5 (0.25-1 μM) or LY-3 (0.5-2.5 μM) prepared as a 20 mM stock solution in sterile DMSO, protein expressions of P-STAT3 (Tyr705) and STAT3 were tested. DAOY cells were treated with DMSO, 50 ng/ml of IFN-γ, LY-5 (1-5 μM) prepared as a 20 mM stock solution in sterile DMSO, protein expressions of P-STAT3 (Tyr705) and STAT3 were tested. […]
The cells were harvested and lysed in cold radioimmunoprecipitation assay (RIPA) lysis buffer containing […] and phosphatase inhibitor cocktail, and were subjected to SDS-PAGE. […] Membranes were analyzed using Enhanced Chemiluminescence Plus reagents and scanned with the Storm Scanner (Amersham Pharmacia Biotech, Inc., Piscataway, N.J.).
MCF-7 breast cancer cells were seeded in 10 cm plates and allowed to adhere overnight. […] The cells were harvested after 30 minutes and analyzed by Western blot.

[3] = test system: cleaved caspase-3; test: Western blot, cleaved caspase-3 (apoptosis); type: cell-based, human
[4] = molecular target: T1, STAT3 dimerization (Homo sapiens, UniProt P40763); test: STAT3 dimerization in transfected HeLa cells; type: cell-based; settings: flag- and HA-tagged STAT3
T1 construct: expressed in transfected cells; host or cells: HeLa

[5] = test system: MDA-MB-231 human breast cancer cells xenograft; test: Mouse model of xenograft tumor development; type: in vivo; settings: for tumor growth (tumor volume) / STAT3 phosphorylation in tumor tissue: 21 days; for tumor growth (tumor volume): p<0.001; for STAT3 phosphorylation in tumor tissue: Western blot
Description: MDA-MB-231 human breast cancer cells (5×10^6) were injected subcutaneously into the flank area of 6-week-old female athymic nude mice which were purchased from Harlan (Indianapolis, Ind., USA). There were two injection sites per animal, thus each animal provided two tumors for analysis. After tumor development, mice were divided into two treatment groups consisting of eight tumors per group (4 animals/group). The vehicle was as follows: 10% DMSO, 18% Cremophor EL, and 72% sterile 5% Dextrose solution. The same vehicle was used for oral administration (via oral gavage) or intraperitoneal (“IP”) injection. The test compound was LY-5 was at 2.5 mg/ml in the vehicle, and 100 μL was administered daily to each animal (total dose: 5 mg/kg). For both oral and IP administration, LY-5 was administered for 21 days. Tumor growth was determined by measuring length (L) and width (W) of the tumor every other day with a caliper. The tumor volume was calculated according to the formula: Tumor volume=0.5236×L×W^2.
Statistical analysis for mouse xenograft tumor data was performed by fitting a mixed model to conduct the repeated measures analysis. The repeated measures in the model were the log transformed growing rates (log 10(tumor size/day one tumor size)) measured in different days (1,3, etc. as indicated). The purpose of the model was to test whether the interaction effect between measurement time and treatment group was significant. The interaction item can be interpreted as “the difference of growing rate among the groups.” Probability (p) values less than 0.05 were considered statistically significant.

T1 sequence (P40763 whole entry): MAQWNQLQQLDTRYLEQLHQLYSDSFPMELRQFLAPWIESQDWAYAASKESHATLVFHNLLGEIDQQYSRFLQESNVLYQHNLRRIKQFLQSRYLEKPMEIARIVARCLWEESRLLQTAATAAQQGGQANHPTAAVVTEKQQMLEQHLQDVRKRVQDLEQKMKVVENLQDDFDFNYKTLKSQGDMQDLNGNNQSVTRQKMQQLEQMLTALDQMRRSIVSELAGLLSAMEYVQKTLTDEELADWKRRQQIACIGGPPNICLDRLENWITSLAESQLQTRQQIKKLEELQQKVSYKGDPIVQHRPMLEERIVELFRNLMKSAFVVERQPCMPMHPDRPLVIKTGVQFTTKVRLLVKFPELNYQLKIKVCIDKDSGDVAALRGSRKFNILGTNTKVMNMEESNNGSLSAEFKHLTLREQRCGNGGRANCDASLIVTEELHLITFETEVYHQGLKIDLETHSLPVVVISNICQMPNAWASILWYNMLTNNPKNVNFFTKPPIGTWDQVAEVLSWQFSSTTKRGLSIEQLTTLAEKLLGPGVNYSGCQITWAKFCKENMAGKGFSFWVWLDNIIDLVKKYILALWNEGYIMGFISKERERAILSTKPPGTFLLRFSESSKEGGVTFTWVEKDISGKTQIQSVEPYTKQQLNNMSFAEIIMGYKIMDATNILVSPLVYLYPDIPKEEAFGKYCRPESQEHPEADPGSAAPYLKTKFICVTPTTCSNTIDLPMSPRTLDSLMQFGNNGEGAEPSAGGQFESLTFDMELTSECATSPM

NS(=O)(=O)c1cccc2c1C(=O)C=C(Nc1cccnc1)C2=O [LY-5, 5,8-dioxo-6-(pyridin-3-ylamino)-5,8-dihydronaphthalene-1-sulfonamide]
inhibitory binding to the active sites of 96 kinases ([1]; 1 μM drug concentration, FIG. 56): no apparent inhibitory binding | inhibition of the panel of kinases ([1]; 1000 and 5000 nM): did not significantly inhibit; also recorded: no apparent activity | IFN-γ induced STAT1 phosphorylation at Y701 ([2]; DLD1, 0-2.5 μM, 2 h): does not inhibit | STAT1 expression and phosphorylation ([2]; MCF-7, OSM 50 ng/mL): effect the fold change of STAT1 | apoptosis (cleaved caspase 3) ([3]; EW8, 0.5-1.0 μM, 8 h): induction of apoptosis | apoptosis (cleaved caspase-3) in normal cells ([3]; HCSMC, HH and HSMM, 0-1 μM, 2 h): but not in HCSMC, HH and HSMM cells | apoptosis (cleaved caspase-3) ([3]; RD2 and EW8, 0-1 μM, 2 h): induces apoptosis | apoptosis (cleaved caspase-3) ([3]; UW288-1 and UW426, 0-1 μM, 2 h): apoptosis | STAT3 dimerization [4]: inhibits | vessel number in tumor tissue (anti-CD34 staining) ([5]; human breast cancer tumor xenograft): reduced the vessel number | tumor growth (tumor volume) ([5]; intraperitoneal injection, 5 mg/kg daily, 5 mg/kg): significantly suppresses; also recorded: decrease in tumor growth | tumor growth (tumor volume) ([5]; oral gavage, 5 mg/kg daily, 5 mg/kg): strongly suppressed tumor growth | tumor growth (tumor volume) ([5]; oral gavage, 5 mg/kg daily, listed as LY5, 5 mg/kg): significantly decreased; also recorded: decreased tumor growth | body weight and visible signs of toxicity ([5]; oral, 5 mg/kg daily): No obvious change in body weight or visible signs of toxicity | STAT3 phosphorylation in tumor tissue ([5]; oral, 5 mg/kg): no apparent phosphorylated STAT3 | STAT3 phosphorylation in tumor tissue ([5]; oral, 5 mg/kg, listed as LY5, 5 mg/kg): noticeably lower than vehicle group; also recorded: decrease in STAT3 phosphorylation
